Counter-ions that a name gives are not always drawn. Marks after values point to notes of the source that are not given here.
Test: Plasma metabolite profiling (GC-MS, LC-MS, SPE-LC-MS) of rats dosed once daily over 28 days; treatment ratios versus untreated control
Assay type: in vivo, rat
How it was run: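 Male and female rats (5/sex/group) dosed once daily for 28 days; fasted anaesthetized animals bled retro-orbitally (EDTA plasma) on days 7, 14, 28, stored −80 °C under N2. Polar and lipid fractions profiled by GC-MS (derivatized), LC-MS/MRM; steroids by online SPE-LC-MS. Pool-normalized data; treatment ratios vs sex-matched controls, Welch test p-values.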

[1] = plasma, female rats, day 7, high dose, Table 5a
[2] = plasma, female rats, day 7, high dose, Table 5b
[3] = plasma, female rats, day 7, high dose, Table 6c
[4] = plasma, female rats, day 7, high dose, Table 6d
[5] = plasma, female rats, day 14, high dose, Table 5a
[6] = plasma, female rats, day 14, high dose, Table 5b
[7] = plasma, female rats, day 14, high dose, Table 6c
[8] = plasma, female rats, day 14, high dose, Table 6d
[9] = plasma, female rats, day 28, high dose, Table 5a
[10] = plasma, female rats, day 28, high dose, Table 5b
[11] = plasma, female rats, day 28, high dose, Table 6c
[12] = plasma, female rats, day 28, high dose, Table 6d

3-Hydroxybutyrate, ratio versus control [1]: 1.49*
Histidine, ratio versus control [1]: 1.31*
Isoleucine, ratio versus control [1]: 1.9*
Leucine, ratio versus control [1]: 1.98*
Valine, ratio versus control [1]: 1.49*
4-Hydroxy-3-methoxyphenylglycol (HMPG), ratio versus control [2]: 0.73*
Glucose, ratio versus control [2]: 0.94
Lactate, ratio versus control [2]: 0.45*
Malate, ratio versus control [2]: 0.67*
Metanephrine, ratio versus control [2]: 0.55*
Pyruvate, ratio versus control [2]: 0.37*
Uric acid, ratio versus control [2]: 0.92
4-Hydroxysphinganine (t18:0, Phytosphingosine), total, ratio versus control [3]: 1.03
Docosahexaenoic acid (C22:cis[4,7,10,13,16,19]6), ratio versus control [3]: 1.67*
Docosapentaenoic acid (C22:cis[7,10,13,16,19]5), ratio versus control [3]: 1.98*
Phosphatidylcholine (C16:0,C16:0), ratio versus control [3]: 1.11*
Phosphatidylcholine No 02, ratio versus control [3]: 1.05
TAG (C16:0,C16:1), ratio versus control [3]: 2.83*
TAG (C16:0,C18:2), ratio versus control [3]: 2.65*
TAG (C18:2,C18:2), ratio versus control [3]: 1.99*
TAG (C18:2,C18:3), ratio versus control [3]: 1.83*
TAG (C18:3,C18:2,C18:1), ratio versus control [3]: 2.04*
TAG No 059, ratio versus control [3]: 2.1*
4-Hydroxyphenylpyruvate, ratio versus control [4]: 0.61*
Glycine, ratio versus control [4]: 0.82*
Lactate, ratio versus control [4]: 0.45*
Lysophosphatidylcholine (C16:0), ratio versus control [4]: 0.97*
Uric acid, ratio versus control [4]: 0.92
3-Hydroxybutyrate, ratio versus control [5]: 1.55*
Leucine, ratio versus control [5]: 1.44*
Valine, ratio versus control [5]: 1.24*
4-Hydroxy-3-methoxyphenylglycol (HMPG), ratio versus control [6]: 0.67*
Glucose, ratio versus control [6]: 0.87*
Lactate, ratio versus control [6]: 0.61*
Malate, ratio versus control [6]: 0.66*
Metanephrine, ratio versus control [6]: 0.26*
Pyruvate, ratio versus control [6]: 0.33*
Uric acid, ratio versus control [6]: 0.64*
Docosahexaenoic acid (C22:cis[4,7,10,13,16,19]6), ratio versus control [7]: 1.58*
Docosapentaenoic acid (C22:cis[7,10,13,16,19]5), ratio versus control [7]: 2.01*
Palmitic acid (C16:0), ratio versus control [7]: 1.24*
Phosphatidylcholine (C16:0,C16:0), ratio versus control [7]: 1.2*
TAG (C16:0,C16:1), ratio versus control [7]: 2.16*
TAG (C16:0,C18:1,C18:3), ratio versus control [7]: 1.52*
TAG (C16:0,C18:2), ratio versus control [7]: 1.82*
TAG (C18:2,C18:2), ratio versus control [7]: 1.5*
TAG (C18:3,C18:2,C18:1), ratio versus control [7]: 1.63*
TAG No 059, ratio versus control [7]: 2.21*
4-Hydroxyphenylpyruvate, ratio versus control [8]: 0.62*
Glycine, ratio versus control [8]: 0.71*
Lactate, ratio versus control [8]: 0.61*
Lysophosphatidylcholine (C16:0), ratio versus control [8]: 0.98*
Uric acid, ratio versus control [8]: 0.64*
3-Hydroxybutyrate, ratio versus control [9]: 2.04*
Galactose, lipid fraction, ratio versus control [9]: 1.21
Glutamine, ratio versus control [9]: 1.31*
Isoleucine, ratio versus control [9]: 1.3*
Leucine, ratio versus control [9]: 1.27*
4-Hydroxy-3-methoxyphenylglycol (HMPG), ratio versus control [10]: 0.8
Glucose, ratio versus control [10]: 0.85*
Lactate, ratio versus control [10]: 0.46*
Malate, ratio versus control [10]: 0.55*
Metanephrine, ratio versus control [10]: 0.38*
Pyruvate, ratio versus control [10]: 0.36*
Uric acid, ratio versus control [10]: 0.68*
4-Hydroxysphinganine (t18:0, Phytosphingosine), total, ratio versus control [11]: 1.12
Docosahexaenoic acid (C22:cis[4,7,10,13,16,19]6), ratio versus control [11]: 1.24*
Docosapentaenoic acid (C22:cis[7,10,13,16,19]5), ratio versus control [11]: 1.76*
Galactose, lipid fraction, ratio versus control [11]: 1.21
Phosphatidylcholine (C16:0,C16:0), ratio versus control [11]: 1.07
Phosphatidylcholine (C16:0,C20:5), ratio versus control [11]: 1.1*
Phosphatidylcholine (C16:1,C18:2), ratio versus control [11]: 1.07
Phosphatidylcholine No 02, ratio versus control [11]: 1.31*
TAG (C16:0,C16:1), ratio versus control [11]: 2.14*
TAG (C16:0,C18:1,C18:3), ratio versus control [11]: 2.06*
TAG (C16:0,C18:2), ratio versus control [11]: 1.84*
TAG (C18:2,C18:3), ratio versus control [11]: 1.93*
TAG (C18:3,C18:2,C18:1), ratio versus control [11]: 1.27*
TAG No 059, ratio versus control [11]: 1.48*
4-Hydroxyphenylpyruvate, ratio versus control [12]: 0.36*
Glycine, ratio versus control [12]: 0.86*
Lactate, ratio versus control [12]: 0.46*
Lysophosphatidylcholine (C16:0), ratio versus control [12]: 0.97*
Uric acid, ratio versus control [12]: 0.68*
4-Hydroxysphinganine (t18:0, Phytosphingosine), total, ratio versus control (rat, in vivo): 1.46*
Isoleucine, ratio versus control (rat, in vivo): 1.46*
Phosphatidylcholine No 02, ratio versus control (rat, in vivo): 1.17*
TAG (C16:0,C18:1,C18:3), ratio versus control (rat, in vivo): 1.41*
TAG (C18:2,C18:2), ratio versus control (rat, in vivo): 1.41*
TAG (C18:2,C18:3), ratio versus control (rat, in vivo): 1.37*
Valine, ratio versus control (rat, in vivo): 1.12*
SMILES: OCCOCCN1CCN(C2=Nc3ccccc3Sc3ccccc32)CC1 [Quetiapine fumarate]

— patent US20150031572A1, “MEANS AND METHODS FOR ASSESSING NEURONAL TOXICITY” (priority 2012, published 2015)
